Assay results reported in US12298297B2, “Visual cell sorting” (University of Washington, priority 2020, dated 2025).

Legend:
[1] = system: hTERT RPE-1; experiment: Nuclear shape factor imaging of paclitaxel-treated cells (nuclear lobulation); assay type: cell-based, human; details: 0.25 nM paclitaxel, 24 hours, RPE-1 NLS-Dendra2×3 cells
Method: FIGS. 4A-4F. Visual Cell Sorting to dissect heterogeneous nuclear morphology following paclitaxel treatment. (4A) RPE-1 NLS-Dendra2×3 cells were treated for 24 hours with 0.25 nM paclitaxel or DMSO and imaged. The shape factor, which measures the degree of an object's circularity, was computed for each nucleus. One normal nucleus with a shape factor near one and one lobulated nucleus with a low shape factor are shown. The computationally determined boundaries of each nucleus are shown in blue; scale bar=10 (4B) Shape factor density plots for vehicle (DMSO) and 0.25 nM paclitaxel-treated RPE-1 cells (n≥3,914 cells per treatment). Dashed line, cutoff for lobulated nuclei (shape factor <0.65). […]
To test whether Visual Cell Sorting enables transcriptomics on cells with distinct image-based phenotypes, single cell RNA sequencing was performed on cells undergoing divergent morphologic responses to paclitaxel. […] Paclitaxel treated cells were then analyzed it was observed that 30% of paclitaxel treated cells had lobulated nuclei, defined by shape factor of less than 0.65 (FIG. 4B).
RPE-1 NLS-Dendra2×3/H2B-miRFP/NES-mBeRFP Clone 3 cells were plated at 50,000 cells per well in a 6-well plate. […] After 30 hours of treatment, cells were placed on the microscope and imaged, analyzed, and activated across 2,204 sites (˜75% coverage, avoided well edges) in 2 wells. […]

[2] = system: U-2 OS H3-Dendra2 cells; experiment: Nucleus-to-cytoplasm (N:C) miRFP ratio of individually expressed NLS variants fused to CMPK-miRFP reporter; assay type: cell-based, human
Method: FIGS. 3A-3D. Visual Cell Sorting-derived variant scores accurately predict NLS function. (3A) Nine NLS variants were individually expressed in the CMPK-miRFP reporter in U-2 OS H3-Dendra2 cells. The median nucleus to cytoplasm (N:C) ratio of cells expressing each variant was measured by microscope and compared to its localization score derived by Visual Cell Sorting. n≥141 cells per variant per replicate. Bars, mean across at least three separate replicates. (3B) SV40 NLS variants that appeared to enhance nuclear localization were individually tested both alone and in combination. NLS variants with up to three amino acid changes were expressed in U-2 OS H3-Dendra2 cells and imaged; the median N:C ratio was quantified across cells in the same well. n≥527 cells per variant per replicate. […]
A library was based on the SV40 NLS, a 7-residue sequence containing a lysine and arginine-rich region (K/R motif) that was the first NLS to be discovered. […] The degree of nuclear localization was calculated using a nucleus-to-cytoplasm miRFP intensity ratio (N:C ratio; FIG. 9A). […]
Analysis of Metamorph-calculated nucleus and cytoplasm mean intensity values was done using Python (v3.6.5). […] Cells with no miRFP expression were removed with a gate that was determined by examination of the histogram of the mean miRFP intensity values for cells in each well. […]

Compound | cells with lobulated nuclei, defined by shape factor of less than 0.65 [1] [%] | increase in nuclear localization compared to the wild-type SV40 NLS (median N:C ratio) [2] [fold]
CC(=O)O[C@H]1C(=O)[C@@]2(C)[C@H]([C@H](OC(=O)c3ccccc3)[C@]3(O)C[C@H](OC(=O)[C@H](O)[C@@H](NC(=O)c4ccccc4)c4ccccc4)C(C)=C1C3(C)C)[C@]1(OC(C)=O)CO[C@@H]1C[C@@H]2O [paclitaxel] | 30 | 
EPPRKKRKIGI [superNLS, optimized SV40 NLS with three missense variants, fused to the CMPK-miRFP reporter] |  | 2.3
